Tests used:
[1] = test system: NCI-H69; assay: Survival of human H69 cells at 0.01 uM under deem light after 96 hrs by MTT assay relative to control; type: functional; conditions: NCI-H69, 96 h, read-out: Survival
[2] = test system: SiHa; assay: Cytotoxicity against human SIHA cells under deem light after 96 hrs by MTT assay; type: functional, cell-based
[3] = Survival of human H209 cells at 0.1 uM under deem light after 96 hrs by MTT assay relative to control; type: functional; conditions: NCI-H209, 96 h, read-out: Survival
[4] = test system: Raji; assay: Survival of human Raji cells at 10 uM under deem light after 96 hrs by MTT assay relative to control; type: functional; conditions: read-out: Survival
[5] = Survival of human MDA-MB cells at 0.01 uM under deem light after 96 hrs by MTT assay relative to control; type: functional; conditions: read-out: Survival
[6] = test system: NCI-H69; assay: Survival of human H69 cells at 50 uM under deem light after 96 hrs by MTT assay relative to control; type: functional; conditions: NCI-H69, 96 h, read-out: Survival
[7] = test system: NCI-H69; assay: Survival of human H69 cells at 0.1 uM under deem light after 96 hrs by MTT assay relative to control; type: functional; conditions: NCI-H69, 96 h, read-out: Survival
[8] = Survival of human H209 cells at 10 uM under deem light after 96 hrs by MTT assay relative to control; type: functional; conditions: NCI-H209, 96 h, read-out: Survival
[9] = test system: Raji; assay: Survival of human Raji cells at 0.1 uM under deem light after 96 hrs by MTT assay relative to control; type: functional; conditions: read-out: Survival
[10] = test system: SiHa; assay: Survival of human SIHA cells at 50 uM under deem light after 96 hrs by MTT assay relative to control; type: functional; conditions: read-out: Survival
[11] = test system: NCI-H69; assay: Survival of human H69 cells at 100 uM under deem light after 96 hrs by MTT assay relative to control; type: functional; conditions: NCI-H69, 96 h, read-out: Survival
[12] = Survival of human 2780.9S cells at 0.1 uM under deem light after 96 hrs by MTT assay relative to control; type: functional; conditions: read-out: Survival
[13] = Photohemolysis in human RBC in absence of light; type: ADME, cell-based; conditions: erythrocyte
[14] = test system: HeLa; assay: Survival of human HeLa cells at 100 uM under deem light after 96 hrs by MTT assay relative to control; type: functional; conditions: read-out: Survival
[15] = test system: HeLa; assay: Survival of human HeLa cells at 10 uM under deem light after 96 hrs by MTT assay relative to control; type: functional; conditions: read-out: Survival
[16] = test system: K562; assay: Survival of human K562 cells at 0.01 uM under deem light after 96 hrs by MTT assay relative to control; type: functional; conditions: K562, 96 h, read-out: Survival
[17] = Cytotoxicity against human 2780.9S cells under deem light after 96 hrs by MTT assay; type: functional, cell-based
[18] = test system: K562; assay: Survival of human K562 cells at 10 uM under deem light after 96 hrs by MTT assay relative to control; type: functional; conditions: K562, 96 h, read-out: Survival
[19] = test system: Raji; assay: Cytotoxicity against human Raji cells under deem light after 96 hrs by MTT assay; type: functional, cell-based
[20] = test system: K562; assay: Survival of human K562 cells at 100 uM under deem light after 96 hrs by MTT assay relative to control; type: functional; conditions: K562, 96 h, read-out: Survival
[21] = test system: HeLa; assay: Survival of human HeLa cells at 0.1 uM under deem light after 96 hrs by MTT assay relative to control; type: functional; conditions: read-out: Survival
[22] = test system: NCI-H69; assay: Cytotoxicity against human H69 cells under deem light after 96 hrs by MTT assay; type: functional, cell-based; conditions: NCI-H69, 96 h
[23] = Survival of human H209 cells at 100 uM under deem light after 96 hrs by MTT assay relative to control; type: functional; conditions: NCI-H209, 96 h, read-out: Survival
[24] = test system: HeLa; assay: Survival of human HeLa cells at 50 uM under deem light after 96 hrs by MTT assay relative to control; type: functional; conditions: read-out: Survival
[25] = Survival of human MDA-MB cells at 10 uM under deem light after 96 hrs by MTT assay relative to control; type: functional; conditions: read-out: Survival
[26] = test system: K562; assay: Survival of human K562 cells at 50 uM under deem light after 96 hrs by MTT assay relative to control; type: functional; conditions: K562, 96 h, read-out: Survival
[27] = test system: K562; assay: Cytotoxicity against human K562 cells under deem light after 96 hrs by MTT assay; type: functional, cell-based; conditions: K562, 96 h
[28] = Survival of human 2780.9S cells at 50 uM under deem light after 96 hrs by MTT assay relative to control; type: functional; conditions: read-out: Survival
[29] = Cytotoxicity against human MDA-MB cells under deem light after 96 hrs by MTT assay; type: functional, cell-based
[30] = Survival of human 2780.9S cells at 0.01 uM under deem light after 96 hrs by MTT assay relative to control; type: functional; conditions: read-out: Survival
[31] = test system: K562; assay: Survival of human K562 cells at 0.1 uM under deem light after 96 hrs by MTT assay relative to control; type: functional; conditions: K562, 96 h, read-out: Survival
[32] = test system: HeLa; assay: Survival of human HeLa cells at 0.01 uM under deem light after 96 hrs by MTT assay relative to control; type: functional; conditions: read-out: Survival
[33] = Survival of human MDA-MB cells at 100 uM under deem light after 96 hrs by MTT assay relative to control; type: functional; conditions: read-out: Survival
[34] = test system: Daudi; assay: Cytotoxicity against human Daudi cells under deem light after 96 hrs by MTT assay; type: functional, cell-based
[35] = Survival of human 2780.9S cells at 10 uM under deem light after 96 hrs by MTT assay relative to control; type: functional; conditions: read-out: Survival
[36] = Survival of human H209 cells at 50 uM under deem light after 96 hrs by MTT assay relative to control; type: functional; conditions: NCI-H209, 96 h, read-out: Survival
[37] = test system: Raji; assay: Survival of human Raji cells at 50 uM under deem light after 96 hrs by MTT assay relative to control; type: functional; conditions: read-out: Survival
[38] = test system: Raji; assay: Survival of human Raji cells at 100 uM under deem light after 96 hrs by MTT assay relative to control; type: functional; conditions: read-out: Survival
[39] = Survival of human MDA-MB cells at 50 uM under deem light after 96 hrs by MTT assay relative to control; type: functional; conditions: read-out: Survival
[40] = test system: Raji; assay: Survival of human Raji cells at 0.01 uM under deem light after 96 hrs by MTT assay relative to control; type: functional; conditions: read-out: Survival
[41] = Survival of human MDA-MB cells at 0.1 uM under deem light after 96 hrs by MTT assay relative to control; type: functional; conditions: read-out: Survival
[42] = test system: NCI-H69; assay: Survival of human H69 cells at 10 uM under deem light after 96 hrs by MTT assay relative to control; type: functional; conditions: NCI-H69, 96 h, read-out: Survival
[43] = Survival of human 2780.9S cells at 100 uM under deem light after 96 hrs by MTT assay relative to control; type: functional; conditions: read-out: Survival
[44] = test system: SiHa; assay: Survival of human SIHA cells at 0.1 uM under deem light after 96 hrs by MTT assay relative to control; type: functional; conditions: read-out: Survival
[45] = test system: SiHa; assay: Survival of human SIHA cells at 10 uM under deem light after 96 hrs by MTT assay relative to control; type: functional; conditions: read-out: Survival
[46] = Survival of human H209 cells at 0.01 uM under deem light after 96 hrs by MTT assay relative to control; type: functional; conditions: NCI-H209, 96 h, read-out: Survival
[47] = test system: HeLa; assay: Cytotoxicity against human HeLa cells under deem light after 96 hrs by MTT assay; type: functional, cell-based

Question: With COc1cccc2c1C(=O)c1c(O)c3c(c(O)c1C2=O)C[C@@](O)(C(=O)CO)C[C@@H]3O[C@H]1C[C@H](N)[C@H](O)[C@H](C)O1 [DOXORUBICIN] as the compound, how does the viability at 0.01 µM [1] read?
Answer: 86.5%

Question: And the IC50 [2]?
Answer: 500 nM

Question: What about the viability at 0.1 µM [3] of the same compound?
Answer: 85.6%

Question: And the viability at 10 µM [4]?
Answer: 8.6%

Question: And the viability at 0.01 µM [5]?
Answer: 121%

Question: And the viability at 50 µM [6]?
Answer: 16.8%

Question: And the viability at 0.1 µM [7]?
Answer: 82.2%

Question: What about the viability at 10 µM [8] of the same compound?
Answer: 23.1%

Question: What about the viability at 0.1 µM [9] of the same compound?
Answer: 106%

Question: And the viability at 50 µM [10]?
Answer: 3.5%

Question: What about the viability at 100 µM [11] of the same compound?
Answer: 6.6%

Question: And the viability at 0.1 µM [12]?
Answer: 105%

Question: What about the Activity [13] of the same compound?
Answer: Non-toxic

Question: And the viability at 100 µM [14]?
Answer: 6.1%

Question: And the viability at 10 µM [15]?
Answer: 20.2%

Question: And the viability at 0.01 µM [16]?
Answer: 116%

Question: And the IC50 [17]?
Answer: 15000 nM

Question: What about the viability at 10 µM [18] of the same compound?
Answer: 22.1%

Question: And the IC50 [19]?
Answer: 2000 nM

Question: And the viability at 100 µM [20]?
Answer: 7.5%

Question: What about the viability at 0.1 µM [21] of the same compound?
Answer: 81.4%

Question: And the IC50 [22]?
Answer: 3000 nM

Question: And the viability at 100 µM [23]?
Answer: 1.5%

Question: And the viability at 50 µM [24]?
Answer: 7%

Question: What about the viability at 10 µM [25] of the same compound?
Answer: 50.5%

Question: What about the viability at 50 µM [26] of the same compound?
Answer: 9.5%

Question: And the IC50 [27]?
Answer: 1000 nM

Question: And the viability at 50 µM [28]?
Answer: 13.8%

Question: What about the IC50 [29] of the same compound?
Answer: 9000 nM

Question: And the viability at 0.01 µM [30]?
Answer: 108%

Question: What about the viability at 0.1 µM [31] of the same compound?
Answer: 100%

Question: What about the viability at 0.01 µM [32] of the same compound?
Answer: 97.5%

Question: And the viability at 100 µM [33]?
Answer: 5%

Question: What about the IC50 [34] of the same compound?
Answer: 300 nM

Question: What about the viability at 10 µM [35] of the same compound?
Answer: 56.9%

Question: What about the viability at 50 µM [36] of the same compound?
Answer: 5.8%

Question: What about the viability at 50 µM [37] of the same compound?
Answer: 2.5%

Question: And the viability at 100 µM [38]?
Answer: 1.1%

Question: And the viability at 50 µM [39]?
Answer: 11.8%

Question: And the viability at 0.01 µM [40]?
Answer: 110%

Question: What about the viability at 0.1 µM [41] of the same compound?
Answer: 96.8%

Question: And the viability at 10 µM [42]?
Answer: 37.7%

Question: What about the viability at 100 µM [43] of the same compound?
Answer: 7.4%

Question: What about the viability at 0.1 µM [44] of the same compound?
Answer: 72.2%

Question: And the viability at 10 µM [45]?
Answer: 4.4%

Question: And the viability at 0.01 µM [46]?
Answer: 85.6%

Question: And the IC50 [47]?
Answer: 2000 nM
